In publication PMC3657749 (Journal of medicinal chemistry, 2013):

Key:
[1] = test system: LNCaP (androgen dependent prostate cancer); assay: Cell viability assay; format: cell-based
[2] = test system: DU-145 (androgen independent prostate cancer); assay: Cell viability assay; format: cell-based; settings: for DU-145 anti-proliferative activity (result in words): highest tested concentration 20 μM
HDAC 1 = HDAC 1 (Homo sapiens, UniProt Q13547); assay: HDAC inhibition by SAMDI mass spectrometry, HDAC 1; format: biochemical; settings: maximum tested concentration 10 μM
HDAC 1, sequence (Q13547 whole entry): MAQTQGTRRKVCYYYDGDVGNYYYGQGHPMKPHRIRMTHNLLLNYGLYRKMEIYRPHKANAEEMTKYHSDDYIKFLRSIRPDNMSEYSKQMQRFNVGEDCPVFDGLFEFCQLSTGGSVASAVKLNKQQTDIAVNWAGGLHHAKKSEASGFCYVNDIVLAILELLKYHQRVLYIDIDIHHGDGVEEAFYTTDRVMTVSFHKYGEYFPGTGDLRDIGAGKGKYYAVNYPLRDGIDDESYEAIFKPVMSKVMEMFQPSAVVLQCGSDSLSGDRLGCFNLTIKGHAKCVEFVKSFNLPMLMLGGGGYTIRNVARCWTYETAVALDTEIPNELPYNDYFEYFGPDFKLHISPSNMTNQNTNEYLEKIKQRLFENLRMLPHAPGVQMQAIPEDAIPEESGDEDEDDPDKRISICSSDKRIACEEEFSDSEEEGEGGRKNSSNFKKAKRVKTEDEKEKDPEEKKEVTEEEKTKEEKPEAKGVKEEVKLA

[3] = test system: T-cell leukemia cell line Jurkat; assay: Cell viability assay; format: cell-based
HDAC 6 = biological target: T1, HDAC 6 (Homo sapiens, UniProt Q9UBN7); assay: HDAC inhibition by SAMDI mass spectrometry, HDAC 6; format: biochemical; settings: maximum tested concentration 10 μM
T1 sequence (Q9UBN7 1-1215): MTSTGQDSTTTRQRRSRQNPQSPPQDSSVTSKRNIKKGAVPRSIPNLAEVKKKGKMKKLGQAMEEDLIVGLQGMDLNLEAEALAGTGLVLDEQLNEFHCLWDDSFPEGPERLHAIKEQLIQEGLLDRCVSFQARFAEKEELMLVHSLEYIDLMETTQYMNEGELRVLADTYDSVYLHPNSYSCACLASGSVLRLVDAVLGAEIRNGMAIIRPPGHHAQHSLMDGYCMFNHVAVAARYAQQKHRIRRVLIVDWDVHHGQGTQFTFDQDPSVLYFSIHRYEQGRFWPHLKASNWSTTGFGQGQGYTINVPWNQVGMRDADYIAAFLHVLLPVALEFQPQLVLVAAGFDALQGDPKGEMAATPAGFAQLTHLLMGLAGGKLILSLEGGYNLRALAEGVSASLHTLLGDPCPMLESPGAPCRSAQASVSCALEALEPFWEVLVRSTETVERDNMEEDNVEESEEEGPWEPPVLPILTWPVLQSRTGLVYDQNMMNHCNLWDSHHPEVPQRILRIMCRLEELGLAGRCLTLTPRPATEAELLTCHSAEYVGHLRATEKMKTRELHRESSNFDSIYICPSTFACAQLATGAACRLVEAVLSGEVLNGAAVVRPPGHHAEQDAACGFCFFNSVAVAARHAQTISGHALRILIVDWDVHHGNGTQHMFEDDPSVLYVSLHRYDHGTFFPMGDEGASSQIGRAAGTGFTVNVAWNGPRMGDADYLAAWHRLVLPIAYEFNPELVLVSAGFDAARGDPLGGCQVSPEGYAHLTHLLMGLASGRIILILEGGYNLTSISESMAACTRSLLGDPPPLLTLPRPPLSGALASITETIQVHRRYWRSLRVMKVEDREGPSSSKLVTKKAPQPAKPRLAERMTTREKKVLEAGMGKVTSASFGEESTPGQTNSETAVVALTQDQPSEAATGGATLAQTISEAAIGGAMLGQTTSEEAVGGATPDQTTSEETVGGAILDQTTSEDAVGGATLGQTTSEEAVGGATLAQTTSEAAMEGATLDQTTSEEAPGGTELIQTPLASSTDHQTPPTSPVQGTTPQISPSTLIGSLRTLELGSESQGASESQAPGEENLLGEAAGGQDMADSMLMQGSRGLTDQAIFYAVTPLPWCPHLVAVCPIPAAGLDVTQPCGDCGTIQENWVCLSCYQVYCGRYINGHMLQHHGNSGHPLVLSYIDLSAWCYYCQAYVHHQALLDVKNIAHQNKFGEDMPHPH

HDAC 8 = biological target: T2, HDAC 8 (Homo sapiens, UniProt Q9BY41); assay: HDAC inhibition by SAMDI mass spectrometry, HDAC 8; format: biochemical; settings: for HDAC 8 inhibition (result in words): SAMDI, maximum tested concentration 10 μM; for HDAC 8 inhibition relative to 7c: fold more active than 7c
T2 sequence (Q9BY41 1-377): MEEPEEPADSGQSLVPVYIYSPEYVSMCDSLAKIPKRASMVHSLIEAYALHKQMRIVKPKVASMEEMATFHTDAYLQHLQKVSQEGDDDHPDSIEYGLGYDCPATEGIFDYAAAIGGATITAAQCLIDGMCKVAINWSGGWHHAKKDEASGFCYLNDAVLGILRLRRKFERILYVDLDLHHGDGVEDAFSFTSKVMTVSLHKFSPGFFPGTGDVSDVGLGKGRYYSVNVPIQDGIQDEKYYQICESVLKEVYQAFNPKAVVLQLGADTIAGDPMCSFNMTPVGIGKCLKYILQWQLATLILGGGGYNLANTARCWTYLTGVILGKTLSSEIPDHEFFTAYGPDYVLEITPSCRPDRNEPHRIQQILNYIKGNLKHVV

[4] = test system: tubulin acetylation (HDAC6 inhibition) in LNCaP cell line; assay: Western blot analysis of tubulin acetylation; format: cell-based; settings: LNCaP cells, 4 hours, at IC50 concentration and at 20 μM
[5] = test system: Jurkat J.gamma1 (mutant Jurkat cell line, no detectable PLCγ1 activity); assay: Cell viability assay; format: cell-based; settings: for IC50: Homo sapiens, Jurkat, 72 h, read-out: Cellular IC50(μM) Jurkat J.gammal
Jurkat J.gamma1 = settings: mutant Jurkat cell line without detectable PLCγ1 activity; cited from earlier work

## Oc1ccc[nH]c1=S [Compound 3-HPT, 3-hydroxypyridin-2-thione]
[1]
  LNCaP anti-proliferative activity (result in words): inactive
[1]; Homo sapiens, LNCaP, read-out: Cellular IC50(μM) LNCaP
  IC50: > 20 µM
[2]; Homo sapiens, DU-145, read-out: Cellular IC50(μM) DU-145
  IC50: > 20 µM
[2]
  DU-145 anti-proliferative activity (result in words): inactive
HDAC 1
  HDAC 1 inhibition (result in words): no inhibition
[3]
  Jurkat anti-proliferative activity (result in words): inactive
[3]; Homo sapiens, Jurkat, 72 h, read-out: Cellular IC50(μM) Jurkat
  IC50: > 20 µM

## Cn1cccc(O)c1=O [Compound 5a, 1-Methyl-3-hydroxypyridin-2-one]
HDAC 6
  HDAC 6 inhibition (result in words): failed to inhibit
HDAC 8
  HDAC 8 inhibition (result in words): failed to inhibit
HDAC 1
  HDAC 1 inhibition (result in words): failed to inhibit

## O=c1c(O)cccn1Cc1ccccc1 [Compound 5b, 1-Benzyl-3-hydroxypyridin-2-one]
HDAC 6
  HDAC 6 inhibition (result in words): failed to inhibit
HDAC 8
  HDAC 8 inhibition (result in words): failed to inhibit
HDAC 1
  HDAC 1 inhibition (result in words): failed to inhibit

## O=c1c(O)cccn1Cc1ccc(-c2ccccc2)cc1 [Compound 5c, 1-(1,1'-Biphenylmethyl)-3-hydroxypyridin-2-one]
HDAC 6
  HDAC 6 inhibition (result in words): failed to inhibit
HDAC 8
  HDAC 8 inhibition (result in words): failed to inhibit
HDAC 1
  HDAC 1 inhibition (result in words): failed to inhibit

## Oc1cccn(Cc2ccccc2)c1=S [Compound 7b, 1-Benzyl-3-hydroxypyridin-2-thione]
HDAC 1
  HDAC 1 inhibition (result in words): neither 7b nor 7c possess any measurable activity

## Oc1cccn(Cc2ccc(-c3ccccc3)cc2)c1=S [Compound 7c, 1-(1,1'-Biphenylmethyl)-3-hydroxypyridin-2-thione]
HDAC 1
  HDAC 1 inhibition (result in words): neither 7b nor 7c possess any measurable activity

## N#Cc1ccc(-c2ccc(Cn3cccc(O)c3=S)cc2)cc1 [Compound 12a, 1-(4-Cyano-(1,1'-biphenylmethyl))-3-hydroxyoxypyridin-2-thione]
HDAC 8
  HDAC 8 inhibition relative to 7c: about 2 fold

## N#Cc1cccc(-c2ccc(Cn3cccc(O)c3=S)cc2)c1 [Compound 12b, 1-(3-Cyano-(1,1'-biphenylmethyl))-3-hydroxyoxypyridin-2-thione]
HDAC 6
  HDAC 6 inhibition (result in words): abrogation of HDAC 6 inhibition

## Cc1ccccc1-c1ccc(Cn2cccc(O)c2=S)cc1 [Compound 12f, 1-(2-Methyl-(1,1'-biphenylmethyl))-3-hydroxyoxypyridin-2-thione]
[4]
  tubulin acetylation (Western blot): increase in tubulin acetylation
[5]
  Jurkat J.gamma1 anti-proliferative activity (result in words): non-cytotoxic
  IC50: > 20 µM
[2]
  DU-145 anti-proliferative activity (result in words): weak activity

## CN(C)c1ccc(-c2ccc(Cn3cccc(O)c3=S)cc2)cc1 [Compound 12g, 1-(4-Dimethylamino-(1,1'-biphenylmethyl))-3-hydroxyoxypyridin-2-thione]
HDAC 6
  HDAC 6 inhibition (result in words): loss of HDAC 6 inhibition
HDAC 8
  HDAC 8 inhibition relative to 7c: about 2 fold
[5]
  Jurkat J.gamma1 anti-proliferative activity (result in words): devoid of anti-proliferative activity
  IC50: > 20 µM

## CN(C)c1ccc(-c2ccc(Cn3cccc(O)c3=S)cc2)cn1 [Compound 12h]
HDAC 8
  HDAC 8 inhibition (result in words): loss of HDAC 8 inhibition

## O=c1c(O)cccn1Cc1cn(-c2ccccc2)nn1 [Compound 15a, 1-Phenyltriazolylmethyl-3-hydroxypyridin-2-one]
HDAC 6
  HDAC 6 inhibition (result in words): inactive
HDAC 8
  HDAC 8 inhibition (result in words): inactive
HDAC 1
  HDAC 1 inhibition (result in words): inactive

## Oc1cccn(Cc2cn(-c3ccccc3)nn2)c1=S [Compound 17a, 1-Phenyltriazolylmethyl-3-hydroxypyridin-2-thione]
HDAC 6
  HDAC 6 inhibition (result in words): only marginally inhibitory
HDAC 8
  HDAC 8 inhibition relative to 7c: 2 to 3 fold
[5]
  Jurkat J.gamma1 anti-proliferative activity (result in words): devoid of anti-proliferative activity
  IC50: > 20 µM

## COc1ccc(Cn2ccc3ccc(C(=O)NO)cc32)cc1 [PCI-34051]
Jurkat J.gamma1
  apoptosis induction in Jurkat J.gamma1: lost its ability to induce apoptosis

## O=C(CCCCCCC(=O)Nc1ccccc1)NO [SAHA, suberoylanilide hydroxamic acid, reference compound]
[4]
  tubulin acetylation (Western blot): concentration dependent tubulin hyperacetylation
[5]
  Jurkat J.gamma1 anti-proliferative activity (result in words): non-cytotoxic
